Measured values published in patent publication US20250122146A1, “COMPOUNDS FOR REDUCING NEUROINFLAMMATION” (THE SCRIPPS RESEARCH INSTITUTE, priority 2021, published 2025).
“Also recorded” adds a separate entry of the source.

Assays:
[1] = test system: Nrf2/ARE pathway; details: literature statement; cited from earlier work
[2] = test system: neural damage / oxidative stress; details: literature statement; cited from earlier work
[3] = test system: human iPSC-derived microglia (hiMG); test: TNF release from hiMG exposed to oligomeric Aβ and αSyn with their antibodies, ELISA; type: cell-based; details: oligomeric Aβ (~750 nM oligomers) + oligomeric αSyn (~100 nM) with anti-αSyn & anti-Aβ antibodies; carnosic acid 2 μM; n=3 per group
Method: (§1) Proinflammatory microglial activation. Following a protocol adapted from D. Trudler et al. (2021), human induced pluripotent stem cell (hiPSC)-derived microglia (hiMG) were plated at a concentration of 1×10^6 cells/mL. 16 h before the experiment the cell medium was changed to IMDM (no supplements added). Carnosic acid (CA, purity >99%) was added 16 hours before the experiment, at a concentration of 2 μM. Recombinant αSyn oligomers (100 nM) and oligomeric Aβ (10 μM) were incubated with 2.5 μg/mL of their respective antibodies for 1 h prior to adding to hiMG for additional 6 hours. Media was collected and cytokine levels, IL-1β or tumor necrosis factor (TNF), were measured by ELISA per the manufacturer's instructions.
(§2) Carnosic Acid Reduces Neuroinflammation Induced by Antibody-Misfolded Protein Complex. NLRP3 inflammasome activation was assessed by measuring the release of the proinflammatory cytokine interleukin-1β (IL-1β) from hiMG exposed to (A) oligomeric Aβ (500 nM oligomers) and low concentrations of oligomeric αSyn (100 nM), (B) Aβ and αSyn with their cognate human antibodies (anti-Aβ and anti-αSyn, respectively), and (C) same as (B) with carnosic acid.

[4] = test system: HSF-1 and Nrf2 transcription pathways; details: literature statement (Satoh et al. 2015); cited from earlier work
[5] = test system: human iPSC-derived microglia (hiMG); test: IL-1β release (NLRP3 inflammasome activation) from hiMG exposed to oligomeric Aβ and αSyn with their antibodies, ELISA; type: cell-based; details: oligomeric Aβ (~500 nM oligomers) + oligomeric αSyn (~100 nM) with anti-αSyn & anti-Aβ antibodies; carnosic acid 0.1-10 μM; n=3 per group
Method: as §1, §2

| SMILES | activation of the Nrf2/ARE pathway [1] | neuroprotective effect [2] | TNF release from hiMG [3] | activation of HSF-1 and Nrf2 transcription pathways [4] | IL-1β release from hiMG [5] |
| --- | --- | --- | --- | --- | --- |
| C=C1CC[C@@H]2C(C)(C)CCCC2(C)C1Cc1cc(O)ccc1O (stereo partly shown) [Zonarol, zonarol] | activate the Nrf2/ARE pathway | exert neuroprotective effects against oxidative stress | – | – | – |
| CC(C)c1cc2c(c(O)c1O)[C@@]1(C(=O)O)CCCC(C)(C)[C@@H]1CC2 [Carnosic acid, carnosic acid] | activates the Nrf2/ARE pathway | affording protection against neural damage | significantly reduced TNF release; also recorded: significantly reduced the type of inflammation | activates both the HSF-1 and Nrf2 transcription pathways | significantly reduced IL-1β release; also recorded: reduction in IL-1β |
